These are literature values, as cited in patent US6340480B1, “Natural composition for the treatment of circulatory conditions” (priority 1998, dated 2002).

Each structure is given as a SMILES string.

The data set relates to Activated Macrophages. Conditions: for killing certain tumor cells; literature study.

On to `CC(C)=CCC[C@](C)(O[C@@H]1O[C@H](CO)[C@@H](O)[C@H](O)[C@H]1O)[C@H]1CC[C@]2(C)[C@@H]1[C@H](O)C[C@@H]1[C@@]3(C)CC[C@H](O)C(C)(C)[C@@H]3[C@@H](O[C@@H]3O[C@H](CO)[C@@H](O)[C@H](O)[C@H]3O)C[C@]12C` [RG1], for which the “production of NO” value was “enhances the production of NO”.
